Experiment [1] deals with MDA-MB-231. The experiment can be described thus: Induction of cell death in MDA-MB-231 by Trypan blue exclusion assay at 1 uM 4 days. The class given is functional, Homo sapiens.
Experiment [2] concerns MDA-MB-231. The experiment can be described thus: Induction of cell death in MDA-MB-231 by Trypan blue exclusion assay at 100 nM after 4 days. In kind it is functional, Homo sapiens.
The subject of experiment [3] is MDA-MB-231. The experiment can be described thus: Inhibition of MDA-MB-231 cell growth by WST assay. As to conditions: Homo sapiens. In kind it is functional, cell-based.

What is called IC50 is the concentration that inhibits the measured activity by half. The low end stands for higher potency, the high end for lower potency. For the compound `CC[C@H](NC)C(=O)N[C@H]1CCC[C@H]2CC[C@@H](C(=O)NC(c3ccccc3)c3ccccc3)N2C1=O`, the Activity in the experiment on MDA-MB-231 [1] was found to be 80%; in the experiment on MDA-MB-231 [2] it was 40%. The same compound had an IC50 in the experiment with MDA-MB-231 [3] of 0.1 µM. `CC[C@H](N)C(=O)N[C@H]1CCC[C@H]2CC[C@@H](C(=O)NC(c3ccccc3)c3ccccc3)N2C1=O`: the IC50 in the experiment on MDA-MB-231 [3] was found to be 50 µM. Same read-out and setting: then `C[C@H](O)C(=O)N[C@H]1CCC[C@H]2CC[C@@H](C(=O)NC(c3ccccc3)c3ccccc3)N2C1=O`, with 65 µM; and `CC[C@@H](C(=O)N[C@H]1CCC[C@H]2CC[C@@H](C(=O)NC(c3ccccc3)c3ccccc3)N2C1=O)N(C)C`, with 3 µM.

The values above are taken from ChEMBL document CHEMBL1138860, “Design, synthesis, and evaluation of a potent, cell-permeable, conformationally constrained second mitochondria derived activator of caspase (Smac) mimetic” (J Med Chem, 2006).
